What was measured:
[1] = tested on: human gastric epithelium cells SGC7901; experiment: Effect on Helicobacter pylori-induced mitochondrial mechanisms of apoptosis in gastric epitheliocytes (mito-GFP confocal microscopy); type: cell-based; conditions: Klacid 500 ng/mL as positive control, same conditions as peptide 10 µM
Protocol: To evaluate the biological activity and effects of peptide H-Glu-Asp-Gly-OH on mitochondrial mechanisms of apoptosis in gastric epitheliocytes, induced by Helicobacter pylori germs, human gastric epithelium cells SGC7901 were studied. The cells were cultivated at 37°C in a damp incubation medium containing 50 mL/L CO2 in DMEM (Dulbecco's Modified Eagle's Medium, ICN Biomedicals) and 10% calf embryonic serum. A preliminary separation of cells for passaging was carried out in the ratio of 1:3-1:5 using a mixture of 0.125% trypsin, 0.02M EDTA (ethylenediaminetetraacetic acid), 0.02% glucose dissolved in a phosphate buffer. The cells were placed on a 24-well plate in the amount of 10^6 cells per well. The cells were passaged in a cultivation medium for 5 days and then taken for study.
On the 5th day after the beginning of cell passaging the peptide H-Glu-Asp-Gly-OH in the dose of 10 µM was administered in the cultivation medium, and in 30 minutes of incubation the cells were taken for study. Klacid antibiotic (clarithromycin, Abbott) in the dose of 500 ng/mL was administered to the cultures in the same conditions as positive control. […]
The status of isolated mitochondria was evaluated using immunofluorescent confocal laser microscopy. […]
Confocal microscopy of mitochondria with optical density evaluation was performed in an inverted confocal microscope Olympus Fluoview CM FV300-IX70 using an apochromatic lens 606 UPlan (Olympus). A 488 nm excitation wave of argon laser was used in each chamber to specify mito-GFP fluorescence that verifies the structure of mitochondria.

[2] = tested on: modeled ulcer; experiment: Morphology study of the induced gastric ulcer (cysteamine-HCL + Helicobacter pylori); type: in vivo, Sprague Dawley rats; conditions: treatment daily for 5 days, Klacid 10 mg intramuscularly
Protocol: The study was carried out on 90 male Sprague Dawley rats (180-220 g) randomly subdivided into 9 groups (10 animals per group): • Group 1 - intact rats (saline solution) • Group 2 - modeled ulcer + saline solution • Group 3 (6 subgroups) - modeled ulcer + H-Glu-Asp-Gly-OH • Group 4 - modeled ulcer + Klacid antibiotic
Ulcer was modeled by three-time administration (in 4 hours) in the rat stomach of cysteamine-HCL (Aldrich, Milwannee, WI) by means of a probe in the dose of 25 mg per 100 g of body weight. The ulcer, approximately 28 mm^2 in size, appeared at the boundary between antral and fundal segments of the stomach 12 hours after the last administration. Simultaneously with the first administration of cysteamine-HCL a Helicobacter pylori culture (Curtin Matheson Scientific Inc, strain Cag J117, 100 microbial cells) was administered in the rat stomach through the same probe.
(§1) A means on the basis of the pharmaceutical composition comprising the studied peptide H-Glu-Asp-Gly-OH was administered subcutaneously in the dose of 1 µg per kg of animal body weight (group 3a), 2,5 µg per kg of body weight (group 3b) and 10 µg per kg of body weight (group 3c) in 0,5 ml of saline solution daily, for 5 days from the occurrence of the stomach ulcer.
as §1, with “The means” for “A means”, “administered intragastrically (through a probe)” for “administered subcutaneously”, “(group 3d),” for “(group 3a),”, “(group 3e)” for “(group 3b)”, “(group 3f)” for “(group 3c)”
Antibiotic Klacid (clarithromycin, Abbott) was administered intramuscularly in the dose of 10 mg in 1 ml of saline solution daily for 5 days from the occurrence of the stomach ulcer.
Material for study was taken from ulcer edge on the 7th day (for western blot assay and polymerase chain reaction in real time - RT-PCR), as well as on the 7th, 15th and 21st day for morphology study and confocal microscopy.
For a morphology study, pieces of gastric mucous membrane from the ulcer edge were fixed in 10% neutral formalin (pH 7.2), then the material was dried out in a Leica TP1020 automatic station (Leica) and covered with paraffin. 5 µm thick paraffin slices were placed on object plates covered with a poly-L-lysine film (Sigma). For a visual study the slices were stained with hematoxylin and eosin, as well as with picrofuxin by the van Gison method.

CC[C@H]1OC(=O)[C@H](C)[C@@H](O[C@H]2C[C@@](C)(OC)[C@@H](O)[C@H](C)O2)[C@H](C)[C@@H](O[C@@H]2O[C@H](C)C[C@H](N(C)C)[C@H]2O)[C@](C)(OC)C[C@@H](C)C(=O)[C@H](C)[C@@H](O)[C@]1(C)O [Klacid, clarithromycin]
biological activity (prevention of Helicobacter pylori-induced mitochondrial apoptosis disorder) relative to the peptide composition [1]: comparable in terms of efficiency | ulcer pathomorphosis, 7th day ([2]; 7th day after ulcer induction, peptide 1, 2,5, 10 µg/kg subcutaneously or intragastrically): largely similar to the changes in Group 3 | ulcer pathomorphosis, 15th day ([2]; 15th day after ulcer induction, peptide 1, 2,5, 10 µg/kg subcutaneously or intragastrically): The same changes were observed | ulcer pathomorphosis, 21st day ([2]; 21st day after ulcer induction, peptide both methods of administration and three dosages): caused the same changes

Reference: patent EP2667887B1, “PHARMACEUTICAL COMPOSITION COMPRISING THE PEPTIDE GLU-ASP-GLY AND USE FOR TREATING HELICOBACTER PYLORI INDUCED GASTRODUODENAL DISEASES” («Garmonia», Ltd., priority 2011, dated 2012)
